How the values were obtained:
human Cav3.1 = human Cav3.1 (Homo sapiens (Human), UniProt O43497); experiment: T-type calcium channel inhibitory activity, whole-cell patch-clamp with HEK293 cell; type: cell-based; details: for IC50: dose-reactive test, read-out: Cav3.1 IC50 (parenthesized)
Experimental: (§1) The inhibitory activity of the present compounds for T-type calcium channel was measured by whole-cell patch-clamp method with HEK293 cell (vendor of HEK 293 cell: ATCC, Manassas, Va., USA, builder of expressing cell: ChanTest Corporation., Cleveland, Ohio, USA), in which human Cav3.1, human Cav3.2, or human Cav3.3 is expressed. The culture medium used for HEK293 cell was prepared by adding fetal bovine serum (10%), sodium penicillin G (100 U/mL), streptomycin sulfate (100 μg/mL), and G418 (500 μg/mL) to a mixture medium of Dulbecco's modified Eagle's medium/Ham's F-12 medium. The whole-cell current was evaluated with IonWorks Barracuda system and Population Patch Clamp (both are provided by Molecular Device Corporation, Union City, Calif., USA). The extracellular recording solution used during the recording was Hanks' balanced salt solution. The internal recording solution used herein was 50 mmol/L CsCl, 90 mmol/L CsF, 5 mmol/L MgCl2, 1 mmol/L glycol ether diamine tetraacetic acid (EGTA), and 10 mmol/L 4-(2-hydroxyethyl)piperazine-1-ethanesulfonic acid (HEPES (pH 7.2). The holding voltage was held at −90 mV, then changed to −65 mV. 60 seconds later, −20 mV pulse was added thereto for 200 millisecond to activate the channel on plasma membrane and generate calcium current. The calcium current was recorded with an amplifier of IonWorks Barracuda system, and analyzed with a program of the system (Version 2.0.2). The record of the calcium current was obtained twice, before and after the addition of the compound. In the measurement after adding the compound, the cells were exposed to the recording solution containing the compound for more than 5 minutes and then the current was measured. In the analyses, the ratio of current readout after the compound addition per current readout before the compound addition was calculated, the calculated value was subtracted from one, and the obtained value was converted to percentage. […] The value obtained from each compound was canonicalized based on the two ends of values to obtain each inhibitory rate. The positive control compound used herein was TTA-A2 which is known as T-type calcium channel inhibitor. IC50 value was calculated with Hill equation.
(§2) Each inhibitory rate (%) against T-type calcium channel at the evaluation concentration of the present compound (600 μmol/L) is shown in Table 12, in which the parenthesized values are IC50 values (μmol/L)) calculated from the dose-reactive test.

human Cav3.2 = human Cav3.2 (Homo sapiens (Human), UniProt O95180); experiment: as above; type: cell-based; details: for IC50: dose-reactive test, read-out: Cav3.2 IC50 (parenthesized)
Experimental: as §1, §2

human Cav3.3 = human Cav3.3 (Homo sapiens (Human), UniProt Q9P0X4); experiment: as above; type: cell-based; details: for IC50: dose-reactive test, read-out: Cav3.3 IC50 (parenthesized)
Experimental: as §1, §2

[1] = tested on: unilateral lesion model of nigrostriatal dopamine neuron induced with 6-OHDA; experiment: Extending duration of levodopa-induced rotational behavior in 6-OHDA unilateral lesion model; type: in vivo, rat; details: Examples 10 or 30 mg/kg oral; rasagiline 0.6 mg/kg; with levodopa 5 mg/kg i.p.
[2] = tested on: tacrine-induced Parkinson's disease tremor model; experiment: Anti-tremor effect in tacrine-induced Parkinson's disease tremor model; type: in vivo, rat; details: Example 1 10-100 mg/kg, Example 13 3-100 mg/kg oral; tacrine 2.5 mg/kg i.p.; counted 10 minutes
From the text: One of the causes of tremor in Parkinson's disease is thought to be a decrease of intracerebral dopamine content, said decrease can hyper-activate the cholinergic nervous system in a counteractive manner to cause the symptom. In the present model, an acetylcholinesterase inhibitor activates the cholinergic nervous system, which breaks down the balance between intracerebral dopamine and acetylcholine to initiate a tremor symptom. Thus, the model is well known as a drug-induced model suffering from tremor in Parkinson's disease. With the present model, the effect of the present compound for inhibiting the tremor in Parkinson's disease was evaluated.
In the present test, male Slc: SD rats (Japan SLC, Inc.) were used. The present compound (Example 1 (10 mg/kg, 30 mg/kg, or 100 mg/kg), Example 13 (3 mg/kg, 10 mg/kg, 30 mg/kg, or 100 mg/kg)) was orally administered to the rat. One hour later, tacrine (2.5 mg/kg) was intraperitoneally administered to the rat. Ten minutes after the administration of tacrine, the number of tremulous jaw movements was counted for 10 minutes.

Rat striatum MAOB = Rat striatum MAOB (Rattus norvegicus (Rat), UniProt P19643); experiment: Activity for inhibiting monoamine oxidase B (MAOB); type: biochemical; details: [14C] β-PEA substrate; read-out: Rat striatum MAOB IC50
Experimental: MAOB is an enzyme involved in oxidative de-amino acid reaction of an endogenous monoamine neurotransmitter such as dopamine. […] The effect of the present compounds for inhibiting MAOB in rat striatum and simian striatum was tested.
Mitochondria⋅synaptosome fraction containing MAOB was prepared according to the following procedure. To striata of male Slc: Wistar rat (Japan SLC, Inc.) or male cynomolgus monkey (HAMRI CO., LTD.) was added 0.32 mol/L aqueous sucrose by 10 mL per 1 gram as wet weight of the tissue, and the mixture was homogenized. The homogenate was centrifuged at 4° C. at 1,000 g for 10 minutes, and the obtained supernatant was centrifuged again at 4° C. at 17,200 g for 20 minutes. To the obtained precipitate was added a prepared buffer solution (10 mmol/L Tris-HCl buffer solution (pH 7.4), 0.25 mol/L aqueous sucrose, 0.5 mmol/L EDTA-2K) by 10 mL per 1 gram as wet weight of the original tissue, and the mixture was centrifuged again at 4° C. at 17,200 g for 20 minutes. To the obtained precipitate was added the prepared buffer solution by 40 mL per 1 gram as wet weight of the original tissue. The mixture was suspended to be used as an enzyme homogenate solution.
As a substance to be degraded by MAOB, ^14C-labeled β-phenylethylamine ([^14C] β-PEA) was used. [^14C] β-PEA and the present compound solution diluted to each concentration were incubated with the enzyme homogenate solution at 37° C. for a given period, and then the reaction was stopped by adding 3 mol/L cold HCl thereto. The reaction product was extracted with a mixture of water-saturated toluene and ethyl acetate (1:1). The supernatant organic layer was separated, a liquid scintillation cocktail (ACSII, GE Healthcare) was added to the separated organic layer, and the radioactivity was measured with a liquid scintillation counter (TRI-CARB 3100TR, Packard). The IC50 value of each compound was determined based on two parameter logistic model with the inhibitory data of each concentration, said data were obtained from plural trials.

human CA-II = human CA-II (Homo sapiens (Human), UniProt P00918); experiment: Activity for inhibiting carbonic anhydrase (CA); type: biochemical; details: 4-nitrophenyl acetate substrate
Experimental: CA is a zinc metalloenzyme family which catalyzes reversible hydration between carbon dioxide, and bicarbonate and proton.
As a substance for decomposition by CA-II, 4-nitrophenyl acetate was used herein. 4-Nitrophenyl acetate is […] with CA-II to produce 4-nitrophenol. […] To the diluted solution were added […] (final concentration: 5 mmol/L) and the present compound of each concentration, and the mixture was incubated at 37° C. under shading for 30 minutes. […] The IC50 of the compound was obtained through the two-parameter logistic model with the inhibitory rate data in each concentration which was obtained from plural trials.

Chain of human Cav3.2 (O95180 whole entry): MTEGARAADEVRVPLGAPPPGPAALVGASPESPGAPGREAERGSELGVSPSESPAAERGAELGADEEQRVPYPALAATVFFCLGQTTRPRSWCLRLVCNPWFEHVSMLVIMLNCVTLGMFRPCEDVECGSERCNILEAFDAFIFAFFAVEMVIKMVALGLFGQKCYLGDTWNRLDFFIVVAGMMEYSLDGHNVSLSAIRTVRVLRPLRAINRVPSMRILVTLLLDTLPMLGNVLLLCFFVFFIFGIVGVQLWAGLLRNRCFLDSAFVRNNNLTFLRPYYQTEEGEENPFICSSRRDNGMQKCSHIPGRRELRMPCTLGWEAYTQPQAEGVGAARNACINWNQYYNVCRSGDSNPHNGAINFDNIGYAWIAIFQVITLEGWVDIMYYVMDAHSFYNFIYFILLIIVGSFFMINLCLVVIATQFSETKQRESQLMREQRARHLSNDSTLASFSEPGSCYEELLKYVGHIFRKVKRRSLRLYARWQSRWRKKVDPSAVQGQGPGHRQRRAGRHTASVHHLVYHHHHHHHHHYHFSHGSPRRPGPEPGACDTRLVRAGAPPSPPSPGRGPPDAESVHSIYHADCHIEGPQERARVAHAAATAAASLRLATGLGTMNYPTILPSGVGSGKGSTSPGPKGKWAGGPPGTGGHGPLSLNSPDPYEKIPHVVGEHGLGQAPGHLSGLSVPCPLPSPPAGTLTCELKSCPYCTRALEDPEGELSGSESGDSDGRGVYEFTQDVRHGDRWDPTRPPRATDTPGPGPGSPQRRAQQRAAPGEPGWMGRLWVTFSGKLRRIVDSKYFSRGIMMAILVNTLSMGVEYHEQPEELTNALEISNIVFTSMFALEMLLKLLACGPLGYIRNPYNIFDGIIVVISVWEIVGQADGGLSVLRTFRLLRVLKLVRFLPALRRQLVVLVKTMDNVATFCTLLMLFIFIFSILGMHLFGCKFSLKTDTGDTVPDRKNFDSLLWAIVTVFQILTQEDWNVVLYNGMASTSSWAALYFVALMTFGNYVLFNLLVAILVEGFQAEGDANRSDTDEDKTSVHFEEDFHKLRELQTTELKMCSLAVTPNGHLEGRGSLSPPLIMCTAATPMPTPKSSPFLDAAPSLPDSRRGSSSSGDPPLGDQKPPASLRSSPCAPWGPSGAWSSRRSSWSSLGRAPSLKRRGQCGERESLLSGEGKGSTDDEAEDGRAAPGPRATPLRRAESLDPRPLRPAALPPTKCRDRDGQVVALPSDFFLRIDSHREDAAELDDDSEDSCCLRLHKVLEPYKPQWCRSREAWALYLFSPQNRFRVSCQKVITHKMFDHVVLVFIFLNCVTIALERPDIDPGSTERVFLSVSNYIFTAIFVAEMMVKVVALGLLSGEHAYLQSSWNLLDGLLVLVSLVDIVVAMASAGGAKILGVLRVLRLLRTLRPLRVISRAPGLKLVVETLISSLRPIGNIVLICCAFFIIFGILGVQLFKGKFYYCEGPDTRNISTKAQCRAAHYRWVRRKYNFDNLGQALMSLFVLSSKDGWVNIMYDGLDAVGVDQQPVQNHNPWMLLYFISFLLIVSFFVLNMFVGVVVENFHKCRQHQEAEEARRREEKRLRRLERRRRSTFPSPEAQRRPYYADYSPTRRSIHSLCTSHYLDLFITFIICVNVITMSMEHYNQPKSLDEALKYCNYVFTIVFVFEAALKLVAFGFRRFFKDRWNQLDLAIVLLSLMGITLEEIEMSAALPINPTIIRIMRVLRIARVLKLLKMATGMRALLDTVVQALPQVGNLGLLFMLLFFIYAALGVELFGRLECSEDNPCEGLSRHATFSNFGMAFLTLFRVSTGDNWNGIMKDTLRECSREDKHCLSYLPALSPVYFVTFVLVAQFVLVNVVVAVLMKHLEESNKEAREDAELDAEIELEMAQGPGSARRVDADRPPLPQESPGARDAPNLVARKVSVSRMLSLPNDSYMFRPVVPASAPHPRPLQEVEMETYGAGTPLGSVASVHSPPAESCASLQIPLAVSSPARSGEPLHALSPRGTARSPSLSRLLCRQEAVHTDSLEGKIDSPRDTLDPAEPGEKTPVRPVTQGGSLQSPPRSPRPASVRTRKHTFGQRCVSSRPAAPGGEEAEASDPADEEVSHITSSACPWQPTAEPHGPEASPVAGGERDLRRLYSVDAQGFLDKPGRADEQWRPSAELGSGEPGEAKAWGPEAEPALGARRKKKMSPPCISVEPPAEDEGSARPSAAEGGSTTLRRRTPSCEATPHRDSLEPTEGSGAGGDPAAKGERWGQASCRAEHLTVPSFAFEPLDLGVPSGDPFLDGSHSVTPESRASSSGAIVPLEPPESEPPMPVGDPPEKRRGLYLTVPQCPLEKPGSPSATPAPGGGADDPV
Chain of human Cav3.1 (O43497 whole entry): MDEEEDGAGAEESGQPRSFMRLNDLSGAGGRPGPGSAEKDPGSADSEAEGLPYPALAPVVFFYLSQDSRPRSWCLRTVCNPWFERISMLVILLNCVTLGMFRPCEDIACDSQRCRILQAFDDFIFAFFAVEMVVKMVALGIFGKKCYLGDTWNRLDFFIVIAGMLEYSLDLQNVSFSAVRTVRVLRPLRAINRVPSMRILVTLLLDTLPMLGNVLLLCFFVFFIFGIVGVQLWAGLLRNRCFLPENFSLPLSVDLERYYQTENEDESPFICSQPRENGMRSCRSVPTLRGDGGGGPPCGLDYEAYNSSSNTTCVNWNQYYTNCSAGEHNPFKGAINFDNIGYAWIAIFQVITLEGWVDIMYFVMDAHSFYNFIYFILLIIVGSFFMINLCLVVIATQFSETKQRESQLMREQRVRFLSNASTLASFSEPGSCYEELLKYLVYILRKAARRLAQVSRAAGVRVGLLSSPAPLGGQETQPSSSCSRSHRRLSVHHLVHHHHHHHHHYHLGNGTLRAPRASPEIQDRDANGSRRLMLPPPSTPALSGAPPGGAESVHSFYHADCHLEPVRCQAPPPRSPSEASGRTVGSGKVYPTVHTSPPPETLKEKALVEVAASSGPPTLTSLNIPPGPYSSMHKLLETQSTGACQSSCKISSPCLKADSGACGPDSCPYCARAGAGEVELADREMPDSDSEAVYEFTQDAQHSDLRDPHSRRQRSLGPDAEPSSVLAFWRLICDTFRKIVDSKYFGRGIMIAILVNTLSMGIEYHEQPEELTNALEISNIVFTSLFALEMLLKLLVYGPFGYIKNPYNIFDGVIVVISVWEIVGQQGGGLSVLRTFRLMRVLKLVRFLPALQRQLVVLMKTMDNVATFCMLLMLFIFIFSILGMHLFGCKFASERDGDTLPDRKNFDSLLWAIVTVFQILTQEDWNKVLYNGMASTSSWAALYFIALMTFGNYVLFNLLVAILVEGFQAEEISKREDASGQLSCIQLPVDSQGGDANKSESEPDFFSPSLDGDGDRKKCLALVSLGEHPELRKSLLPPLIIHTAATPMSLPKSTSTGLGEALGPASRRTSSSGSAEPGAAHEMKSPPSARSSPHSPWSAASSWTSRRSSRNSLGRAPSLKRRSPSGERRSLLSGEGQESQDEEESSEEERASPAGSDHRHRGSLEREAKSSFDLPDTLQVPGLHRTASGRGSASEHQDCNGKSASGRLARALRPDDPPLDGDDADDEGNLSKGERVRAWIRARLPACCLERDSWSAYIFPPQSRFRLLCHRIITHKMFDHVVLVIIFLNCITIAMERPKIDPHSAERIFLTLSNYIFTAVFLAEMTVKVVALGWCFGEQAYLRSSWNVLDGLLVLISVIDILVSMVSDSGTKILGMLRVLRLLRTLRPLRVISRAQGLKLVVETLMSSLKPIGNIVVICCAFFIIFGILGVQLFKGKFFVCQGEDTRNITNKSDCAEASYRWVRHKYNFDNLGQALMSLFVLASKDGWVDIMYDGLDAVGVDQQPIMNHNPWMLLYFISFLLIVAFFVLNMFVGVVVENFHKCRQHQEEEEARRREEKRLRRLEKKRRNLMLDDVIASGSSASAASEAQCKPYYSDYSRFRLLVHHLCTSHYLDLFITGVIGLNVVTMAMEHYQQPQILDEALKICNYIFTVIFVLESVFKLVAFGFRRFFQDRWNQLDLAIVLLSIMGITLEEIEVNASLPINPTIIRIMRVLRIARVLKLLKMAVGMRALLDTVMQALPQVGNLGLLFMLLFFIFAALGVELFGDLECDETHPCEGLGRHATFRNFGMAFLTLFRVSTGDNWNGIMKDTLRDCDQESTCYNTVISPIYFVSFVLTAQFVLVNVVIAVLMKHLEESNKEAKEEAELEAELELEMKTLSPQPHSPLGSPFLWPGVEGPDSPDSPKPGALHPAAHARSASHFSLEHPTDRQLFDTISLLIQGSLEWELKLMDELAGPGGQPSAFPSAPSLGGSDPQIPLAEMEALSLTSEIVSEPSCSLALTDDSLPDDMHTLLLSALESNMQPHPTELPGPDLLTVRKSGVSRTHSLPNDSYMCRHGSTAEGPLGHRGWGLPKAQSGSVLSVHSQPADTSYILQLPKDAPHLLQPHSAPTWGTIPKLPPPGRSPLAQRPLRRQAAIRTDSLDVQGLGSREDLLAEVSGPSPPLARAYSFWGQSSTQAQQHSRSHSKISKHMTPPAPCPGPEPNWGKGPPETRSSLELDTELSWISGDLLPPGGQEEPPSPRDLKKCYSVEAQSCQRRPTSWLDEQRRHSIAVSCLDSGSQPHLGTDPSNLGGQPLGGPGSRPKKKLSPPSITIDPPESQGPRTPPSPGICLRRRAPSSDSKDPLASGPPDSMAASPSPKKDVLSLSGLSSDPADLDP

Structure (SMILES)	inhibition at 600 µM (human Cav3.1; HEK293, 600 μmol/L, read-out: Cav3.1 % inhibitory rate)	IC50 (human Cav3.1)	inhibition at 600 µM (human Cav3.2; HEK293, 600 μmol/L, read-out: Cav3.2 % inhibitory rate)	IC50 (human Cav3.2)	inhibition at 600 µM (human Cav3.3; HEK293, 600 μmol/L, read-out: Cav3.3 % inhibitory rate)	IC50 (human Cav3.3)	rotational number in the late phase (100-120 minutes) [1]	number of tremulous jaw movements [2]	IC50 (Rat striatum MAOB)	IC50 (human CA-II)	Cav3.1 % inhibitory rate (human Cav3.1; 600 μmol/L)	Cav3.2 % inhibitory rate (human Cav3.2; 600 μmol/L)	Cav3.3 % inhibitory rate (human Cav3.3; 600 μmol/L)
C[C@H](c1noc2ccccc12)S(N)(=O)=O [Example 13, (1R)-1-(1,2-benzoxazol-3-yl)ethane-1-sulfonamide]	50.9%	465 µM	42.6%	713 µM	39.9%	746 µM	significantly increased the rotational number in the late phase	significantly decreased the number of tremulous jaw movements per unit time	> 600 µM	18.2 µM	–	–	–
CC(c1noc2ccccc12)S(N)(=O)=O (centres unmarked) [Example 1, 1-(Benzo[d]isoxazol-3-yl)ethane-1-sulfonamide]	–	449 µM	–	848 µM	–	922 µM	significantly increased the rotational number in the late phase	significantly decreased the number of tremulous jaw movements per unit time	349 µM	26.5 µM	46.0%	33.0%	30.7%

Source: US11535599B2, “Benzisoxazole derivative” (Sumitomo Pharma Co., Ltd., priority 2020, dated 2022)
